13 compounds from US8809627B2, “Plant isoflavone and isoflavanone O-methyltransferase genes” (The Samuel Roberts Noble Foundation, Inc., priority 2006, dated 2014) can be followed below.

One assay addresses T1, MtIOMT5 (Medicago truncatula, UniProt Q29U70).
T1 construct: His-tag (N); made in house; host or cells: E. coli BL21(DE3)
T1 sequence (Q29U70 1-364): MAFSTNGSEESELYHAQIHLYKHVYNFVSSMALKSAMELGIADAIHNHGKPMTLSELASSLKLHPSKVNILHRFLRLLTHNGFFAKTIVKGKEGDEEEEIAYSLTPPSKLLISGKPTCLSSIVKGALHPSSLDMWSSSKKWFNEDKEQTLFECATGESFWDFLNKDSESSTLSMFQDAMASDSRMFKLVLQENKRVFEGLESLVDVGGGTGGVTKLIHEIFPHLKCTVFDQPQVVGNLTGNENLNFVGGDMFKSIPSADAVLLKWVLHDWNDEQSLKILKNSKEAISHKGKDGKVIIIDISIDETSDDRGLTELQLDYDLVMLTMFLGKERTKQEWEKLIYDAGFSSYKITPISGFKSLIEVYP
As to the kind of experiment: OMT assays with purified recombinant MtIOMT5 (relative activity; HPLC/MS of products). It is filed as biochemical. The conditions noted are these: for Relative activity, MtIOMT5: 50 μM S-adenosyl methionine, 100 μM acceptor substrate, most converted substrate = 100%; for Position of methylation / reaction products, MtIOMT5: HPLC against standards, tandem MS. The text has this: (§1) Cloning of MtIOMT5 (corresponding to TC 100926, TIGR MtGI v.8) was as described previously (Liu et al., 2005). To obtain a full-length cDNA for MtIOMT2, specific primers designed based upon the M. truncatula genomic sequence were used to amplify the MtIOMT2 coding sequence from M. truncatula root cDNA. The amplified product was cloned into the pGEM®-T easy vector (Promega, Madison Wis.) and sequenced to confirm its identity. MtIOMTs were cloned into the pET28a vector (EMD Biosciences, Inc., San Diego, Calif.) using PCR-based amplification with primers designed to introduce EcoRI and XhoI restriction sites; BamHI and XhoI sites were used for cloning MtIOMT6 due to the presence of an internal EcoRI site in this particular cDNA. Because the EST for MtIOMT8 was missing a start codon, the primer designed to clone MtIOMT8 into pET28a contained an additional 2-nucleotide insertion to generate an ATG start site. All MtIOMTs were expressed as translational fusions to an N-terminal His-tag. Expression of MtIOMTs in E. coli BL21(DE3) and purification by Ni^2+-NTA chromatography were as described (Zubieta et al., 2001). Proteins were dialyzed against 20 mM Tris pH 8.0, 100 mM NaCl, 10% (v/v) glycerol, and 14 mM β-mercaptoethanol. Protein concentration was determined by Bradford assay using BSA as a standard (Bradford, 1976).
Reactions (200 μl) were performed in 0.1 M potassium phosphate, pH 7.4, 10% (w/v) sucrose, 14 mM β-mercaptoethanol with 10 μM protein, 0.5 mM S-adenosyl-L-methionine, and 80 μM phenolic substrates. All substrates were purchased from Indofine (Hillsborough, N.J.) except 6,7-dihydroxy-4′-methoxyisoflavone, dihydrodaidzein, and vestitol, which were purchased from Apin (Oxfordshire, UK). […] OMT assays were incubated at 30° C. for 2 h and extracted with ethyl acetate. Ethyl acetate extracts were dried under N2 and the resultant material was resuspended in 50-100 μl of methanol. Samples were analyzed on an Agilent 1100 HPLC, equipped with a quaternary pump (model #G1311A), a degasser (model #G1322A), an autosampler (model #G1313A), and a diode array detector (model #G1315A). Samples of 20 μl were applied to an ODS2 reverse-phase column (5 μm particle size, 4.6×250 mm) and eluted in 1% (v/v) phosphoric acid with an increasing gradient of acetonitrile (0-5 min, 25%; 5-35 min, 25-50%; 35-39 min, 50-100%) at a flow rate of 1 ml/min. To resolve the 4′-O-methylated and 7-O-methylated products of genistein, samples were applied to a Phenomenex SYNERGI Polar-RP 80 Å column (4 μm particle size, 4.6×250 mm) and eluted in water with an increasing gradient of acetonitrile (0-5 min, 20%; 5-17 min, 20-38%; 17-33 min, 38%; 33-45 min, 38-56%; 45-46 min, 56-100%) at a flow rate of 1 ml/min. Chiral chromatography was performed as described (Liu et al., 2005).
(§2) For determination of specific activities, reactions (100 μl) were performed in 0.1 M potassium phosphate, pH 7.4, 10% (w/v) sucrose, 14 mM β-mercaptoethanol with 0.2-μg protein, 50 μM S-adenosyl-L-methionine (0.025 μCi ^14C-SAM per reaction), and 100 μM substrate. Reactions were incubated at 30° C. for 15-25 min and stopped by addition of 4 μl of 1N HCl. Products were extracted into 500 μl of ethyl acetate and 400 μl was used for liquid scintillation counting.
An HP 1100 series II LC system (Hewlett-Packard, Palo Alto, Calif.) with a photodiode array detector was coupled to a Bruker Esquire ion-trap mass spectrometer (ITMS) equipped with an electrospray ionization source. A reverse phase, C18, 5 μm, 4.6×250 mm column (J. T. Baker, Phillipsburg, N.J.) was used for separations. The mobile phase consisted of 0.1% (v/v) acetic acid using linear gradients of 5-90% acetonitrile (v/v) in 70 min. The flow rate was 0.8 ml/min, and the temperature of the column was kept at 28° C. Both positive- and negative-ion mass spectra were acquired. […]

Another assay deals with MtIOMT1. As to the kind of experiment: OMT assays with purified recombinant MtIOMT1 (relative activity with 14C-SAM). It is filed as biochemical, Medicago truncatula. The conditions noted are these: for Relative activity, MtIOMT1: 50 μM S-adenosyl methionine, 100 μM acceptor substrate, most converted substrate = 100%.
From the text: as §1, with “1976). […]” for “1976).”
as §2

In the case of `O=c1c(O)c(-c2cc(O)c(O)c(O)c2)oc2cc(O)cc(O)c12` [Myricetin], the “Relative activity, MtIOMT5” value at MtIOMT5 is reported as 0%. Also, the “Relative activity, MtIOMT1” value in the assay with MtIOMT1 worked out at 0%.

With `O=c1cc(-c2ccc(O)cc2)oc2cc(O)ccc12` [7,4′-dihydroxyflavone], at MtIOMT5, the “Relative activity, MtIOMT5” value was determined as 0%. Besides, the “Relative activity, MtIOMT1” value with MtIOMT1 is reported as 0%.

As to `O=c1c(-c2ccc(O)cc2)coc2cc(O)c(O)cc12` [6,7,4′-trihydroxyisoflavone], the “Relative activity, MtIOMT5” value on MtIOMT5 turned out to be 0%. In the assay on MtIOMT1, the “Relative activity, MtIOMT1” value is 43.9%.

For the compound `O=C1c2ccc(O)cc2OCC1c1ccc(O)cc1` (stereo not drawn) [Dihydrodaidzein], on MtIOMT5, the “Relative activity, MtIOMT5” value stood at 7.9%; the “Position of methylation / reaction products, MtIOMT5” value was 4′-methoxy, 7-methoxy, and 4′,7-dimethoxy products. The “Relative activity, MtIOMT1” value in the assay with MtIOMT1 was found to be 15.6%.

As for `COc1ccc(C2COc3cc(O)ccc3C2)c(O)c1` (stereo not drawn) [Vestitol], at MtIOMT5, the “Relative activity, MtIOMT5” value is recorded as “≦1%”. Also, the “Relative activity, MtIOMT1” value with MtIOMT1 is recorded as 0%.

As to `COc1cc2c(=O)c(-c3ccc(O)cc3)coc2cc1O` [Glycitein], at MtIOMT5, the “Relative activity, MtIOMT5” value is 0%. In addition, the “Relative activity, MtIOMT1” value with MtIOMT1 is reported as 100%.

Regarding `O=c1cc(-c2ccc(O)cc2)oc2cc(O)cc(O)c12` [Apigenin], the “Relative activity, MtIOMT5” value at MtIOMT5 was 0%. Further, in the assay on MtIOMT1, the “Relative activity, MtIOMT1” value is on record as 0%.

As for `O=c1c(-c2ccc(O)cc2)coc2cc(O)ccc12` [Daidzein], the “Relative activity, MtIOMT5” value at MtIOMT5 was 0%. In the assay with MtIOMT1, the “Relative activity, MtIOMT1” value was determined as 20.6%. Further, the “Fold by which relative initial activity with glycitein is higher than with this substrate” value in the assay on MtIOMT1 (MtIOMT1, saturating concentration of glycitein) was found to be 5 fold.

For the compound `O=c1oc2cc(O)ccc2c2oc3cc(O)ccc3c12` [Coumestrol], the “Relative activity, MtIOMT5” value at MtIOMT5 is listed as 0%. Further, the “Relative activity, MtIOMT1” value with MtIOMT1 is reported as 0%.

Take `COc1ccc(-c2coc3cc(O)c(O)cc3c2=O)cc1` [6,7-dihydroxy,4′-methoxyisoflavone]: on MtIOMT5, the “Relative activity, MtIOMT5” value worked out at 0%. In the assay on MtIOMT1, the “Relative activity, MtIOMT1” value is listed as “≦1%”. Further, the “Fold reduction of activity compared with 6,7,4′-trihydroxyisoflavone” value in the assay on MtIOMT1 (MtIOMT1, methylation of the 4′-hydroxyl group) was “more than 80 fold”.

Consider `O=c1c(-c2ccc(O)c(O)c2)coc2cc(O)ccc12` [7,3′,4′-trihydroxyisoflavone], for which the “Relative activity, MtIOMT5” value on MtIOMT5 is recorded as 0%. Further, the “Relative activity, MtIOMT1” value in the assay with MtIOMT1 worked out at 40.8%.

As to `O=C1C[C@@H](c2ccc(O)cc2)Oc2cc(O)cc(O)c21` [Naringenin], at MtIOMT5, the “Relative activity, MtIOMT5” value is reported as “≦1%” and the “Position of methylation / reaction products, MtIOMT5” value is recorded as “methylated on the 4′-positions”. Moreover, in the assay on MtIOMT1, the “Relative activity, MtIOMT1” value turned out to be 0%.

As to `O=c1c(-c2ccc(O)cc2)coc2cc(O)cc(O)c12` [Genistein], the “Relative activity, MtIOMT5” value on MtIOMT5 was 0%. The “Relative activity, MtIOMT1” value with MtIOMT1 was 49.2%.
